# Measured values published in EP0220153B1, “A nutritive emulsion having oxygen-transporting properties, and process for its preparation” (Kabi Pharmacia AB, priority 1985, dated 1987).
# Assay: acute toxicity test on mice
# Settings: mouse, in vivo, other: injected, injected as emulsion of example 1 composition, observation time 72 hours, expressed for perfluorodecalin
# Protocol: An emulsion of the same composition and prepared in the same way as in example 1 was tested on mice for acute toxicity. Observation time was 72 hours.
# It appears that the acute toxicity (LD₅₀) will be just below 30 g/kg for perfluorodecalin. Owing to the great volumes that were injected, it cannot be excluded that changes in liquid and electrolyte balance have affected the results and that, therefore, an examination of this kind not solely reflects the toxicity of the fluorocarbon compound; however, the indicated value of 30 g/kg is of such a magnitude that the preparation can be regarded as non-toxic.
structure (smiles),measurement,value
FC1(F)C(F)(F)C(F)(F)C2(F)C(F)(F)C(F)(F)C(F)(F)C(F)(F)C2(F)C1(F)F (stereo not shown) [perfluorodecalin],LD50 at 72 h,< 30000 mg/kg
